# Laboratory results as given in ChEMBL document CHEMBL1201862, “PubChem BioAssay data set” (2004).
# Several values for one entry are separate records, joined by “and”; a condition that tells them apart may be missing. Identical values can stand only once.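 These data come from cells grown in 96-well plates and exposed to compound for 48 hours at five concentrations. At the GI50, growth is halved.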 Activity calls are given as the source filed them. Cut-off read from the data, not from the text of the source: active = GI50 up to about 1.1 µM and inactive = higher.
# Legend:
# Experiment in all cases: NCI-60 cell line screen, 48 h
# 786-0 = system: 786-0
# A498 = system: A498
# DU-145 = system: DU-145
# EKVX = system: EKVX
# HCT-15 = system: HCT-15
# KM12 = system: KM12
# MOLT-4 = system: MOLT-4
# NCI-H23 = system: NCI-H23
# RPMI-8226 = system: RPMI-8226
# SF-268 = system: SF-268
# SF-295 = system: SF-295
# SR = system: SR
# SW-620 = system: SW-620
# T47D = system: T47D
# TK-10 = system: TK-10
# UACC-62 = system: UACC-62
# UO-31 = system: UO-31
# Malme-3M = system: Malme-3M
# SN12C = system: SN12C
# NCI-H522 = system: NCI-H522
Structure (SMILES),GI50 (786-0),GI50 (A498),GI50 (DU-145),GI50 (EKVX),GI50 (HCT-15),GI50 (KM12),GI50 (MOLT-4),GI50 (NCI-H23),GI50 (RPMI-8226),GI50 (SF-268),GI50 (SF-295),GI50 (SR),GI50 (SW-620),GI50 (T47D),GI50 (TK-10),GI50 (UACC-62),GI50 (UO-31),GI50 (Malme-3M),GI50 (SN12C),GI50 (NCI-H522)
CCOC(=O)c1nc2ccc(C(F)(F)F)cc2nc1Oc1ccc(F)cc1,> 100 µM (inactive),> 100 µM (inactive),> 100 µM (inactive),> 100 µM (inactive),> 100 µM,> 100 µM (inactive),> 100 µM (inactive),> 100 µM (inactive),> 100 µM (inactive),> 100 µM (inactive),> 100 µM (inactive),> 100 µM (inactive),> 100 µM (inactive),> 100 µM (inactive),> 100 µM (inactive),> 100 µM (inactive),> 100 µM (inactive),–,–,–
CCOC(=O)[C@@]12C[C@](/C=C/OC)(O[Si](C)(C)C)[C@@]13c1cc(OC)c(OC)cc1CCN3C(=O)C2=O,> 100 µM (inactive),> 100 µM (inactive),> 100 µM (inactive),> 100 µM (inactive),> 100 µM,> 100 µM (inactive),> 100 µM (inactive),> 100 µM (inactive),> 100 µM (inactive),> 100 µM (inactive),> 100 µM (inactive),> 100 µM (inactive),> 100 µM (inactive),> 100 µM (inactive),> 100 µM (inactive),> 100 µM (inactive),> 100 µM (inactive),> 100 µM (inactive),> 100 µM (inactive),–
CN(O)C(=O)c1ccc(OCc2cccc(Cl)c2)cc1,12.4 µM (inactive),25.8 µM (inactive),27.4 µM (inactive),30.3 µM (inactive),3.52 µM,27.5 µM (inactive),9.64 µM (inactive),11.4 µM (inactive),14.8 µM (inactive),21.2 µM (inactive),13.2 µM (inactive),4.91 µM (inactive),32.8 µM (inactive),43.1 µM (inactive),57.4 µM (inactive),15.4 µM (inactive),16.9 µM (inactive),–,18 µM (inactive),13.1 µM (inactive)
COc1cc([C@H]2OC[C@H]3[C@@H]2CO[C@@H]3c2cc(OC)c3c(c2)OCO3)cc(OC)c1OC,> 100 µM (inactive),> 100 µM (inactive),81.3 µM (inactive),39.4 µM (inactive) and 40.9 µM (inactive),34.4 µM and 39.8 µM,50.5 µM (inactive) and 95.1 µM (inactive),12.9 µM (inactive) and > 10 µM (inactive),37.4 µM (inactive) and 63 µM (inactive),28 µM (inactive) and 35 µM (inactive),68.2 µM (inactive) and 59.2 µM (inactive),48.1 µM (inactive) and 47.9 µM (inactive),17.3 µM (inactive) and 42.1 µM (inactive),> 100 µM (inactive),34.2 µM (inactive) and 37.9 µM (inactive),> 100 µM (inactive),39.9 µM (inactive) and 67.3 µM (inactive),44.6 µM (inactive) and 38.3 µM (inactive),–,96.8 µM (inactive),32.7 µM (inactive) and 20.7 µM (inactive)
CC(=O)OCC1OC(N2C(C)=C(C(C)=O)C(c3ccc(Cl)cc3)C(C#N)=C2S)C(OC(C)=O)C(OC(C)=O)C1OC(C)=O (configuration not stated),35.6 µM (inactive),38.2 µM (inactive),68.5 µM (inactive),–,41.3 µM,79.8 µM (inactive),18.6 µM (inactive),> 10 µM (inactive),37.9 µM (inactive),65.8 µM (inactive),66.2 µM (inactive),28.2 µM (inactive),5.46 µM (inactive),24.5 µM (inactive),76.9 µM (inactive),19.9 µM (inactive),36.8 µM (inactive),48.4 µM (inactive),85.9 µM (inactive),32.4 µM (inactive)
O=C1NN=C(O)C2C3c4ccccc4C(c4ccccc43)C12 (configuration not stated),> 100 µM (inactive),> 100 µM (inactive),> 100 µM (inactive),> 100 µM (inactive),> 100 µM,> 100 µM (inactive),> 100 µM (inactive),> 100 µM (inactive),> 100 µM (inactive),> 100 µM (inactive),> 100 µM (inactive),> 100 µM (inactive),> 100 µM (inactive),> 100 µM (inactive),> 100 µM (inactive),> 100 µM (inactive),> 100 µM (inactive),> 100 µM (inactive),> 100 µM (inactive),–
CCN(CC)C(=S)SNCCc1ccc(S(N)(=O)=O)cc1,14.7 µM (inactive),30.7 µM (inactive),14 µM (inactive),20 µM (inactive),16.8 µM,16.6 µM (inactive),–,18.8 µM (inactive),11.5 µM (inactive),15.6 µM (inactive),16.7 µM (inactive),< 0.01 µM (active),14.1 µM (inactive),18.1 µM (inactive),18.6 µM (inactive),16.9 µM (inactive),13.1 µM (inactive),12 µM (inactive),14.2 µM (inactive),–
O=C1c2ccc3cc(CCl)cc(O)c3c2C(=O)c2cccc(O)c21,2.07 µM (inactive),> 10 µM (inactive),4.95 µM (inactive),> 10 µM (inactive),1.1 µM,4.79 µM (inactive),1.37 µM (inactive),3.12 µM (inactive),2.21 µM (inactive),2.16 µM (inactive),> 10 µM (inactive),0.447 µM (active),0.145 µM (active),7.48 µM (inactive),> 10 µM (inactive),1.22 µM (inactive),–,0.0151 µM (active),1.5 µM (inactive),3.28 µM (inactive)
C[N+](C)(N)Cc1csc(-c2ccc(Cl)cc2)n1,> 100 µM (inactive),88.5 µM (inactive),> 100 µM (inactive),64.3 µM (inactive),> 100 µM,> 100 µM (inactive),–,> 100 µM (inactive),> 100 µM (inactive),46.5 µM (inactive),67.1 µM (inactive),> 100 µM (inactive),> 100 µM (inactive),80 µM (inactive),> 100 µM (inactive),> 100 µM (inactive),> 100 µM (inactive),39.4 µM (inactive),34.8 µM (inactive),62.4 µM (inactive)
CSc1c(C(=O)Nc2ccc(C)cc2)c(N)nn1-c1ccccc1,19.9 µM (inactive),23.1 µM (inactive),42.8 µM (inactive),49.4 µM (inactive),> 100 µM,–,> 100 µM (inactive),> 100 µM (inactive),> 100 µM (inactive),46 µM (inactive),48.8 µM (inactive),9.89 µM (inactive),> 100 µM (inactive),98.9 µM (inactive),33.3 µM (inactive),95.9 µM (inactive),> 100 µM (inactive),19.9 µM (inactive),> 100 µM (inactive),71.4 µM (inactive)
